From patent US20240239786A1, “COMPOSITIONS AND METHODS FOR THE TREATMENT AND PREVENTION OF CANCER” (Yale University, priority 2021, published 2024)

How the values were obtained:
PEO4ip xenografts = assay: Survival of mice bearing peritoneal PEO4ip xenografts; type: in vivo, SCID-Beige mice; conditions: for effect on survival time of mice: olaparib 50 mg/kg, DB4 10 mg/kg, i.p. daily for 4 weeks
Description: SCID-Beige mice implanted ip with PEO4ip cells were treated daily (qd) with DB4 (10 mg/kg), olaparib (50 mg/kg), and the DB4-olaparib combination for 4 weeks. Kaplan Meier analysis was performed to determine the survival time of mice following treatments. Statistical significance was determined by the Mantel-Cox test comparing the control with each treatment group (N=4-5). […] DB4 given every two days (q2d) in the DB4-olaparib combination for 4 or 6 weeks (n=4-5). […] NOD CRISPR Prkdc Il2r Gamma (NCG) mice implanted sc with SKOV3 cells were treated as described in FIG. 10C for 4 weeks during which the tumor size was measured. Statistical significance was determined by the Wilcoxon matched-pairs signed test comparing the control with each treatment group and comparing between treatment groups. Data are means±SE (N=4-5). *, p<0.05; **, p<0.01.
First, the efficacy of the combination of DB4 and olaparib to treat PEO4ip tumor xenografts, as determined by the median survival time, was evaluated in a peritoneal mouse model (Lin Z P et al., 2018, PLOS One, 13:e0207399). Mice were implanted intraperitoneally (i.p.) with PEO4ip cells and then treated i.p. with olaparib, DB4, or both drugs in combination daily for 4 weeks. The survival endpoint (a 50% increase in abdominal circumference) for vehicle-treated control mice ranged from 55-65 days (8-9 weeks).
Next, these experiments were repeated with modified treatment schedules of DB4 given every two day (q2d) for 4-week and 6-week treatment periods.
Five to six weeks old female SCID-Beige mice were purchased from Envigo (Indianapolis, IN). PEO4ip cells (Lin Z P et al., 2018, PLOS One, 13:e0207399) suspended in 100 μL serum-free medium were implanted i.p. (1×10^7 cells per mouse). Six to eight weeks old female NCG (NOD-Prkdcem26Cd52Il2rgem26Cd22/NjuCrl) mice were purchased from Charles River (Wilmington, MA). SKOV3 cells suspended in 100 μL serum-free medium were mixed with 50 μL Matrigel (BD Biosciences) and implanted s.c. in the right dorsal medial area (1×10^7 cells per mouse). […] The abdominal circumference of PEO4ip-bearing mice reached a 50% increase about 50-70 days.
Mice were randomly assigned to treatment groups (n=4-5) and drug treatment was initiated 3-7 days after tumor implantation. The control group of mice received i.p. treatment with vehicle (2% DMSO) and treatment groups of mice received i.p. treatment for a period of 4 or 6 weeks as follows: Olaparib (50 mg/kg) once daily for 5 consecutive days per week; DB4 (10 mg/kg) once daily for 5 consecutive days (M, T, W, R, F) per week or once every 2 days (M, W, F) per week; The combined treatment with olaparib and DB4 at the dose and schedule described above.
The progression of PEO4ip tumor xenografts in mice was evaluated by measuring the size of the circumference at the lower one-third of the abdominal area with the mouse head positioned upward. A 50% increase in the abdominal circumference was defined as the endpoint of survival as described previously (Lin Z P et al., 2018, PLOS One, 13:e0207399). […] Kaplan-Meier survival curve, median survival time, and statistical analysis was performed using the Prism software (GraphPad). Comparisons were made by the Mantel-Cox test comparing the control with each treatment group. The growth of SKOV3 tumor xenografts was evaluated by the size of s.c. tumor using a digital caliper. Tumor volumes were calculated using the formula: length×width2/2. Statistical difference in the tumor size was determined by the Wilcoxon matched-pairs signed test comparing the control with each treatment group and comparing between treatment groups. Body weights of mice were measured on every treatment day before administration and on the same schedule as tumor measurements during the treatment period.

T cells = assay: PBMC T cell co-culture with PEO4 cells activated by CD3-CD28 beads; type: cell-based; conditions: PBMCs co-cultured with treated PEO4 cells
Source text: FIG. 23 depicts representative effects of DB4 or triapine on peripheral blood mononuclear cells (PBMCs) containing T cells that were co-cultured with BRCA-mutated PEO1 and BRCA-wild type PEO4 cells and activated by CD3-CD28 beads. PEO1 cells suppressed CD8-positive activated T cells.
FIG. 24 depicts representative effects of DB4 or triapine on peripheral blood mononuclear cells (PBMCs) containing T cells that were co-cultured with BRCA-mutated PEO1 and BRCA-wild type PEO4 cells and activated by CD3-CD28 beads. PEO1 cells increased PD1 and LAG3-positive exhausted T cells.
Further experiments were conducted using PBMCs containing T cells that were co-cultured with PEO1 or PEO4 cells and activated by CD3-CD28 beads (FIG. 23). […] Both DB4 and triapine are RNR inhibitors. As such, although not bound by any particular theory, it was hypothesized that DB4 turned BRCA-wild type EOC into immunogenic “hot” tumors. DB4 promoted an increase in tumor neoantigens and the recruitment of tumor infiltrating lymphocytes (TILs) to tumor stroma, which enabled an effective antitumor response elicited by immune checkpoint inhibitors.

[1] = Table 2: olaparib 50 mg/kg qd, DB4 10 mg/kg qd, i.p., treated daily
[2] = Table 3: single agents, olaparib 50 mg/kg qd, DB4 10 mg/kg q2d

| SMILES | Median Survival Time (PEO4ip xenografts; [1]) [days] | Median Survival Time (PEO4ip xenografts; [2]) [days] | effect on survival time of mice (PEO4ip xenografts) | T cell activation and exhaustion in co-culture with drug-treated PEO4 cells (T cells) |
| --- | --- | --- | --- | --- |
| O=C(c1cc(Cc2n[nH]c(=O)c3ccccc23)ccc1F)N1CCN(C(=O)C2CC2)CC1 [olaparib, reference compound] | 66 | 55 | no effects on the survival time of mice |  |
| NC(=S)NN=Cc1ncccc1N [triapine, 3-aminopyridine-2-carboxaldehyde-thiosemicarbazone, reference compound] |  |  |  | suppressing T cell activation and enhancing T cell exhaustion |
| C=CCn1c(SCc2cccc(Cl)c2)nnc1C1CCN(Cc2nc3ccccc3s2)CC1 [DB4, 2-[(4-{4-allyl-5-[(3-chlorobenzyl)thio]-4H-1,2,4-triazol-3-yl}-1-piperidinyl)methyl]-1,3-benzothiazole] | 67 | 56 | no effects on the survival time of mice | suppressing T cell activation and enhancing T cell exhaustion |
